This is an account of results in PMC4933562, “Bile salt receptor complex activates a pathogenic type III secretion system” (eLife, 2016).

The target in one assay is T1, VtrC (VPA1333) (Vibrio parahaemolyticus, UniProt Q87GI3+Q87GI4).
T1 construct: periplasmic domains: VtrC aa 31–161 (N-terminal His-tagged) co-expressed with VtrA aa 161–253; with VtrA (VPA1332), periplasmic domain aa 161–253, obligate 1:1 heterodimer
The assay is described as follows: ITC (n = […]) and […] Å co-crystal structure. In kind it is binding.

The target of assay [1] is N-terminal His-tagged VtrC periplasmic domain (aa 31-161) (Vibrio parahaemolyticus). The assay is described as follows: SEC.

As usually defined, the Kd is the free concentration of one partner at which half of the binding sites on the other are occupied at equilibrium, for simple one-to-one binding. Low readings indicate higher affinity, high ones lower affinity. Compound `C[C@H](CCC(=O)NCCS(=O)(=O)O)[C@H]1CC[C@H]2[C@@H]3CC[C@@H]4C[C@H](O)CC[C@]4(C)[C@H]3C[C@H](O)[C@]12C` [TDC, taurodeoxycholate] came in with a Kd on VtrC (VPA1333) of 315 nM.

In assay [1], “VtrA periplasmic domain (aa 161-253), co-expressed with VtrC (domain or fragment)” showed a stoichiometry N (VtrA per VtrC) of 1.
